Test results published in patent US20250000907A1, “ENGINEERED IMMUNE CELLS WITH REDUCED SIRT6 EXPRESSION” (H. LEE MOFFITT CANCER CENTER AND RESEARCH INSTITUTE, INC., priority 2021, published 2025).

Key:
[1] = test system: Pmel T cells stimulated with gp100; test: IFN-γ ELISPOT assay of Pmel T cells; type: cell-based, mouse; conditions: activated Pmel T cells, OSS vs. DMSO, FIG. 7C
Protocol: (§1) The number of IFN-γ producing cells was evaluated in an ELISPOT assay. Briefly, mouse TILs were plated at 1×10^5 cells and co-cultured with 1×10^3 irradiated B16F10 tumor cells (50 Gray) in the presence of the indicated concentrations of OSS, in a 96-well nitrocellulose flat-bottomed plate (ELISPOT plate, Millipore) pre-coated with an anti-mouse IFN-γ antibody (AN-18, Mabtech, Inc.) and incubated for 48 hr at 37° C. For Pmel T cells, splenocytes were first stimulated with gp100 (1 μg/ml, Anaspec) for 48 hr in the presence of the indicated concentrations of OSS and then transferred to the ELISPOT plate pre-coated with an anti-mouse IFN-γ antibody (AN-18, Mabtech, Inc.) for an additional 48 hr. For human CD3+ T cells and TILs, cells were first stimulated with plate-coated anti-CD3 for 48 hr in the presence of vehicle or OSS at the indicated concentration and then transferred to the ELISPOT plate pre-coated with an anti-human IFN-γ antibody (1-DIK, Mabtech, Inc.). PMA (10 ng/ml, Sigma-Aldrich) was used as positive assay control. After washing steps and successive biotinylated anti-IFN-γ antibody (R4-6A2, Mabtech, Inc.) and Streptavidin-HRP (BD Bioscience) labeling, spots were detected using AEC Substrate Kit (BD Biosciences) and counted using an AID ELISPOT Reader System (Autoimmun Diagnostika GmbH).

[2] = test system: patient-derived human NSCLC tumor cells; test: LDH cytotoxic assay of human NSCLC TILs co-cultured with autologous tumor cells; type: cell-based; conditions: ex vivo expanded autologous TILs co-cultured with patient-derived NSCLC tumor cells
Protocol: Evaluation of functional cytotoxic activity was performed using Pierce™ LDH Cytotoxicity Assay Kit (Thermo Fisher Scientific) according to the manufacturer's protocol. B16F10 cells or human NSCLC autologous tumor cells were used as target cells. Mouse CD8+ enriched T cells from gp100-stimulated Pmel splenocytes or human NSCLC TILs were used as effector cells. Target tumor cells were co-cultured with effector cells in 96-well round-bottom microplates at the indicated effector:target ratios with and without Sirt6 inhibitor. After 6 hr, the percentage of specific LDH release was calculated according to the following formula: % cell lysis=(experimental value−effector cells spontaneous release−target cells spontaneous release)×100/(target cells maximum release−target cells spontaneous release), where “experimental” corresponds to the experimental signal value, “effector spontaneous” to spontaneous release of LDH from effector cells alone, “target spontaneous” to spontaneous release of LDH from target cells alone and “maximum release” to the maximum release of LDH from target cells in medium containing 1% Triton X-100.

activated CD3+ T cells = test: Western blot analysis of activated T cells; type: cell-based, mouse
Protocol: Whole cell lysates were prepared using lysis buffer (Pierce RIPA buffer, Thermo Fisher Scientific) supplemented with Complete™ protease inhibitor cocktail and PhosSTOP phosphatase inhibitor cocktail (Roche Applied Science).
Cell lysates (20 μg) or IP samples were loaded onto 10% SDS-PAGE and separated by electrophoresis followed by semi-dry transfer into polyvinylidene fluoride membranes (Immun-Blot® PVDF membrane, Bio-Rad) using Trans-Blot Turbo transfer system (Bio-Rad). After transfer, the membranes were blocked at room temperature with Tris-buffered saline (TBS) containing 0.05% Tween-20 (TBST) and 5% (w/v) non-fat dry milk for 1 hour and then incubated overnight at 4° C. with a specific primary antibody (indicated below). The membranes were washed three times with TBST and then incubated for 1 hour with horseradish peroxidase (HRP)-conjugated goat […] IgG H&L (Abcam, #ab97051, 1:3,000) for regular western blotting analysis, or HRP-conjugated mouse anti-rabbit IgG light-chain specific (Cell Signaling, #93702, 1:1,000) for IP samples. After washing 3 times with TBST, bound antibodies were detected by chemiluminescence using the Pierce™ ECL Western Blotting Substrate and the Super Signal West Femto Maximum Sensitivity Substrate kits (Thermo Fisher Scientific). Image acquisition was performed with the Amersham imager 600 system (GE Healthcare Bio-Sciences).
Immunoblotting was performed using primary antibodies against: Sirt6, H3K9, acetylated-H3K9 and c-Myc (#9402, 1:1,000) from Cell signaling, LDH (#ab52488, 1:5,000), PFKP (#ab204131, 1:2,000), HK1 (#ab150423, 1:1,000), HIF-1α and beta-Actin from Abcam

[3] = test system: TILs isolated from B16F10 tumors; test: IFN-γ ELISPOT assay of B16F10 TILs re-challenged with B16F10 cells; type: cell-based, mouse; conditions: B16F10 TILs re-challenged with B16F10 cells ex vivo, FIG. 7G
Protocol: Lymphocytes from subcutaneous tumors were isolated by dicing the tissues followed by enzymatic digestion in PBS containing collagenase type 4 (2 mg/ml, Worthington Biochemical) and DNase I (0.25 mg/ml, Sigma-Aldrich) for 45 min with occasional shaking at 37° C. Cell suspensions were then twice filtered through 100 μm and 40 μm cell strainers (Thermo Fisher Scientific) to obtain single-cell suspension followed by a PBS wash and red blood cell lysis using RBC Lysis Buffer (Biolegend). TILs were finally isolated by density gradient centrifugation using Percoll (GE Healthcare) and were further purified using […] MicroBeads Kit™ (Miltenyi Biotec) according to the manufacturer's instructions. T cell purity was greater than 90% (data not shown). Fresh TILs were used directly for phenotypic and metabolic analyses or were cultured in complete RPMI medium for functional assays.
The number of IFN-γ producing cells was evaluated in an ELISPOT assay. […] After washing steps and successive biotinylated anti-IFN-γ antibody (R4-6A2, Mabtech, Inc.) and Streptavidin-HRP (BD Bioscience) labeling, spots were detected using AEC Substrate Kit (BD Biosciences) and counted using an AID ELISPOT Reader System (Autoimmun Diagnostika GmbH).

[4] = test system: human TILs from NSCLC patient tumor samples; test: Seahorse ECAR of human NSCLC TILs; type: cell-based; conditions: TILs from 6 NSCLC patients, OSS vs. DMSO
Protocol: Human tumor infiltrating lymphocytes (hTILs) samples isolated from tumor biopsies of patients with non-small cell lung cancer (NSCLC) were generously provided by Moffitt Cancer Center. All human samples remained totally de-identified and no Institutional Review Board (IRB) approval was needed.
hTILs were maintained in RPMI 1640 Medium, supplemented with 10% human AB serum (Valley Biomedical, Inc.), 1 mM Hepes (Sigma-Aldrich), 1% P/S (Thomas Scientific Inc), 50 μg/ml Gentamicin (ThermoFisher Scientific), 50μM β-mercaptoethanol (ThermoFisher Scientific) and 6000 U/ml of recombinant human IL-2 (Peprotech). For metabolic and functional assays, hTILs were cultured in completed RPMI medium, IL-2 free, on plate-bound anti-CD3 antibody (5 μg/ml; OKT-3, BioXCell) in the presence of vehicle or OSS (Selleck Chemicals) at the indicated concentrations.
(§2) Extracellular acidification rate (ECAR) and oxygen consumption rate (OCR) were measured using the Seahorse XF analyzer (Agilent technologies). […] For GST, ECAR and OCR were measured under basal conditions and in response to 10 mM glucose, 1 μM oligomycin and 50 mM 2-DG successively to calculate basal glycolytic rate, glycolytic capacity (in response to oligomycin), and glycolytic reserve (glycolytic capacity-basal rate). […] Results were normalized to total protein quantified using Pierce™ BCA Protein Assay Kit (Thermo Fisher Scientific).

[5] = test system: CD3+ TILs isolated from B16F10 tumor nodules; test: Seahorse ECAR of TILs isolated from s.c. B16F10 melanoma tumors; type: cell-based, mouse; conditions: TILs from s.c. B16F10 tumors in C57BL/6 mice, OSS vs. DMSO, FIG. 6F
Protocol: Anesthetized mice were injected subcutaneously (s.c.) into the hind limb with 2.5×10^5 B16F10 tumor cells in 200 μl of sterile PBS. Tumors were collected after 2 weeks and TILs were isolated for further analysis.
Lymphocytes from subcutaneous tumors were isolated by dicing the tissues followed by enzymatic digestion in PBS containing collagenase type 4 (2 mg/ml, Worthington Biochemical) and DNase I (0.25 mg/ml, Sigma-Aldrich) for 45 min with occasional shaking at 37° C. Cell suspensions were then twice filtered through 100 μm and 40 μm cell strainers (Thermo Fisher Scientific) to obtain single-cell suspension followed by a PBS wash and red blood cell lysis using RBC Lysis Buffer (Biolegend). […]
as §2

[6] = test system: stimulated CD8+ T cells from WT vs. Sirt2−/− Pmel mice; test: IFN-γ ELISPOT assay of stimulated CD8+ T cells from WT vs. Sirt2−/− Pmel mice; type: cell-based, mouse; conditions: FIG. 3C
Protocol: FIG. 3: Sirtuins in the immune system. A, WB of Sirt1-3,5-7 expression in activated CD3+ T cells from WT vs. Sirt2−/− mice. ECAR measured by Seahorse analyzer (B) and IFN-γ ELISPOT assay (C) in stimulated CD8+ T cells from WT vs. Sirt2−/− Pmel mice treated with vehicle (Ctl), or Sirt6 inhibitor (Sirt6i). *P<0.05, **P<0.01, ****P<0.0001.
as §1, with “For human CD3+ T cells and TILs, cells were first stimulated with plate-coated anti-CD3 for 48 hr in the presence of vehicle or OSS at the indicated concentration and then transferred to the ELISPOT plate pre-coated with an anti-human IFN-γ antibody (1-DIK, Mabtech, Inc.). PMA (10 ng/ml, Sigma-Aldrich) was used as positive assay control.” left out

[7] = activated CD3+ T cells, WB, FIG. 8J

## O=C(Nc1ccc(O)c(C(=O)O)c1)c1cccc(NC(=O)c2ccco2)c1 [OSS_128167]
[1]
  IFN-γ release: increases
[2]
  TIL cytotoxic activity: enhanced
Activated CD3+ T cells; [7]
  Glut1 protein expression levels: upregulation
  HK1 protein expression levels: upregulation
  LDHA protein expression levels: upregulation
  PFKP protein expression levels: upregulation
Activated CD3+ T cells; activated T cells, FIG. 8D
  H3K9 acetylation levels: increased
  HIF-1α expression levels: no effect
  c-Myc expression levels: no effect
[3]
  IFN-γ release: increase
[4]
  aerobic glycolysis (basal glycolysis, glycolytic capacity): increased
[5]
  glycolytic activity of TILs (ECAR): restored
[6]; Sirt2−/− Pmel CD8+ T cells
  effect on effector function (IFN-γ ELISPOT) with Sirt2 deficiency: potentiated
[6]; activated T cells, Sirt6i vs. vehicle
  effector function of T cells (IFN-γ ELISPOT): increases
